Assay results reported in US20260345803A1, “An Integrin Alpha10 Antibody Drug Conjugate” (Targinta AB, priority 2022, published 2026).

Columns and labels:
[1] = test system: Hs578T; test: In vitro cytotoxicity (WST-1), Hs578T; assay type: cell-based; settings: spheres, 10 days
Experimental: (§1) • Aim: To evaluate the in vitro efficacy of Th-Ab12-ADC in different cell lines. Material and Methods: Cells were seeded either as monolayer (C2C12alpha10, C2C12alpha11 and A204) or as spheres (BT549, Hs578T, U3046MG, U3054MG and SJSA-1) and treated with the IgG1 isotype control Ctrl-ADC or Th-Ab12-ADC at different concentrations ([…]) for 5 days (C2C12alpha10, C2C12alpha11, A204 and SJSA-1) or 10 days (BT549, Hs578T, U3046MG and U3054MG). On the day of termination, the cells were incubated for 3-4 hours with WST-1, which measures the viable cells, and the plates were read at OD450 nm wavelength via SpectraMax. The dose response curves and IC50 values were generated in GraphPad Prism 9. The WST-1 assay is based on the cleavage of tetrazolium salt WST-1 for formazan by cellular mitochondrial dehydrogenases. […] The differences in IC50 values between control ADC and Th-Ab12-ADC supports a relatively large therapeutic window for each cell line (Table 3).

[2] = test system: U3054MG; test: In vitro cytotoxicity (WST-1), U3054MG; assay type: cell-based, human; settings: spheres, 10 days
Experimental: as §1

[3] = test system: A204; test: In vitro cytotoxicity (WST-1), A204; assay type: cell-based; settings: monolayer, 5 days
Experimental: as §1

[4] = test system: C2C12alpha10; test: In vitro cytotoxicity (WST-1), C2C12alpha10; assay type: cell-based, mouse; settings: monolayer, 5 days
Experimental: as §1

[5] = test system: SJSA-1; test: In vitro cytotoxicity (WST-1), SJSA-1; assay type: cell-based; settings: spheres, 5 days
Experimental: as §1

[6] = test system: BT549; test: In vitro cytotoxicity (WST-1), BT549; assay type: cell-based; settings: spheres, 10 days
Experimental: as §1

[7] = test system: U3046MG; test: In vitro cytotoxicity (WST-1), U3046MG; assay type: cell-based, human; settings: spheres, 10 days
Experimental: as §1

[8] = test system: C2C12alpha11; test: In vitro cytotoxicity (WST-1), C2C12alpha11; assay type: cell-based, mouse; settings: monolayer, 5 days
Experimental: as §1

[9] = target: T1, integrin alpha11 (C2C12alpha11 cells) (human, UniProt Q9UKX5); test: FACS, C2C12alpha11 cells
T1 chain: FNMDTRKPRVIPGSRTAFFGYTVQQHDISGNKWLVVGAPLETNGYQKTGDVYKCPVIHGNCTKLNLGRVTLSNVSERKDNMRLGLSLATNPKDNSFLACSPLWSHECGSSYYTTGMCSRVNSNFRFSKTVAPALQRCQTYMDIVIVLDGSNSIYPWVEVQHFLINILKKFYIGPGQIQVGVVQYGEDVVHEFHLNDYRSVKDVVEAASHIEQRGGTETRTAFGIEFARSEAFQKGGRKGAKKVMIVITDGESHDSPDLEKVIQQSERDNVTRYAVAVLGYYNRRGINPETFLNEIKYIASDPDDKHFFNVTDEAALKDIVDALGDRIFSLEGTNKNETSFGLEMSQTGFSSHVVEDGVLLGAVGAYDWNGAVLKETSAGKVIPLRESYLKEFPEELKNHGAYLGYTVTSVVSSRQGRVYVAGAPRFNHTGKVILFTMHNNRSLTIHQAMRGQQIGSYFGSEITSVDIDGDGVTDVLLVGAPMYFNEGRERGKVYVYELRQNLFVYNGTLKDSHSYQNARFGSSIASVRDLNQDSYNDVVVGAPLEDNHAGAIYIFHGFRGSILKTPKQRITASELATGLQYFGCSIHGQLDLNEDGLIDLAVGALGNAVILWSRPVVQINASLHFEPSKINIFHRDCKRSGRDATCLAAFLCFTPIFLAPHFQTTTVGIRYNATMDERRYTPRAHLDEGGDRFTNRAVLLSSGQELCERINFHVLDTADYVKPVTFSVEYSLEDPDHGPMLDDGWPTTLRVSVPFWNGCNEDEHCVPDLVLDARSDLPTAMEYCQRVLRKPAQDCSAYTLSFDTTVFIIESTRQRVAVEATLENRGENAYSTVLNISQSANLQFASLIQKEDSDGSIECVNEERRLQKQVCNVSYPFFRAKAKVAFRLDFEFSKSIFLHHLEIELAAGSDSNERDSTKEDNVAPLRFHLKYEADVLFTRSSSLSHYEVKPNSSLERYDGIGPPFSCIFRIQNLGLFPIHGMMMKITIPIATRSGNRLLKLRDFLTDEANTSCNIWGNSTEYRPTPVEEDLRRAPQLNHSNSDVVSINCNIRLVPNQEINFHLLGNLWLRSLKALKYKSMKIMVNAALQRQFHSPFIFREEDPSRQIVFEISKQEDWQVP

[10] = target: T2, integrin alpha10 (alpha10beta1, cell-expressed) (human, UniProt O75578); test: FACS, upper end of range 0.9-2.69 nM over seven cell lines
T2 chain: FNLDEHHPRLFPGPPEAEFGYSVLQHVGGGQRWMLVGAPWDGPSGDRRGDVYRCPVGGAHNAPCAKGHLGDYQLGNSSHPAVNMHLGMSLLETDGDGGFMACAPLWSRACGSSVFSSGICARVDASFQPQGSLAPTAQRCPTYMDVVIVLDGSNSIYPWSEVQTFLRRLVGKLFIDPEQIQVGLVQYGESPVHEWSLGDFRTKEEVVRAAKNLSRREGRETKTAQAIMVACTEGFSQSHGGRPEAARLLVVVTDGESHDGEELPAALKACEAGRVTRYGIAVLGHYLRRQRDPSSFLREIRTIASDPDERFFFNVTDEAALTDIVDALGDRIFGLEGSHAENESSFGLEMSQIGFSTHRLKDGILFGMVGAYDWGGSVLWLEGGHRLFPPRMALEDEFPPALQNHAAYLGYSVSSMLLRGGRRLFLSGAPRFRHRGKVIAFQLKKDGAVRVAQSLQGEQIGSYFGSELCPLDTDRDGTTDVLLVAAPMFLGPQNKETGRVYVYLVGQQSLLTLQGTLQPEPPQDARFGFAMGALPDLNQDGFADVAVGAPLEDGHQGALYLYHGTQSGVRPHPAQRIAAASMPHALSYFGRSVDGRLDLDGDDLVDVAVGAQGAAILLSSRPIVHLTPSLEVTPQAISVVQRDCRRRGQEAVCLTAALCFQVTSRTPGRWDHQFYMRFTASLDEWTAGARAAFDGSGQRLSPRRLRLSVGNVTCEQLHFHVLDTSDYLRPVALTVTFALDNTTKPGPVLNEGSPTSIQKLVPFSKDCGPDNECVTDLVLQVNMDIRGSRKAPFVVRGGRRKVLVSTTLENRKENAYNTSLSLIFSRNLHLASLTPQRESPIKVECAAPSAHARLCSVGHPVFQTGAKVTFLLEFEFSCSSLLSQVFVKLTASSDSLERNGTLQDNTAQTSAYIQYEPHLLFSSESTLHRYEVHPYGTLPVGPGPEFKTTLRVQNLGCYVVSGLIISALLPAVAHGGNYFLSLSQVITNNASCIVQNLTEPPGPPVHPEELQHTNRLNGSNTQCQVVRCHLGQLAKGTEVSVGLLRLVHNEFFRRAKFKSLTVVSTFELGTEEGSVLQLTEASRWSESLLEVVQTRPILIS

[11] = target: T2, integrin alpha10 (alpha10beta1, …); test: FACS, lower end of range 0.9-2.69 nM over seven cell lines

`COc1cccc2c1C(=O)c1c(O)c3c(c(O)c1C2=O)CC(O)(C(=O)CO)CC3OC1CC2C(OC3C(OC)OCCN23)C(C)O1` [PNU-159682, 3′-deamino-3″-4′-anhydro-[2″(S)-methoxy-3″(R)-hydroxy-4″-morpholinyl]doxorubicin] was tested, and the IC50 [1] was 0.981 nM, the IC50 [2] was 0.145 nM and the IC50 [3] was 0.023 nM. It also gave an IC50 [4] of 0.027 nM, an IC50 [5] of 0.077 nM and an IC50 [6] of 1.4 nM. It also gave an IC50 [7] of 0.077 nM and an IC50 [8] of 0.018 nM.

B1: Th-Ab15 (antibody, V domains shown)
VH: QVQLVQSGAEVKKPGASVKVSCKTSGYTFTEYYVIWVRQAPGQGLEWLGWIFPGSGRTYYSEKFRGRATITVDKSTSTAYMELSSLRSEDTAVYYCARDNYGSSGKFFAYWGQGTLVTVSS
VL: DVVMTQSPLSLPVTLGQPASISCRSSQSLVHSNGNTYLHWYQQKPGQPPKLLIYKVSNRFSGVPDRFSGSGSGTDFTLKISRVEAEDVGVYYCSQSTHVPYTFGQGTKLEIK
B1: no binding [9].

B2: Th-Ab9 (antibody, V domains shown)
VH: QVQLVQSGAEVKKPGASVKVSCKTSGYTFTEYYIIWVRQAPGQGLEWLGWIFPGSGRTYYSEKFRGRATITVDKSTSTAYMELSSLRSEDTAVYYCARDNYGSSGKFFAYWGQGTLVTVSS
VL: DVVMTQSPLSLPVTLGQPASISCRSSQSLVHSNGNTYLHWYQQKPGQPPKLLIYKVSNRFSGVPDRFSGSGSGTDFTLKISRVEAEDVGVYYCSQSTHVPYTFGQGTKLEIK
B2: no binding [9].

B3: Th-Ab14 (antibody, V domains shown)
VH: QVQLVQSGAEVKKPGASVKVSCKTSGYTFTEYYVIWVRQAPGQGLEWLGWIFPGSGRTYYSEKFRGRATITVDKSTSTAYMELSSLRSEDTAVYYCARDNYGSSGKFFAYWGQGTLVTVSS
VL: DVVMTQSPLSLPVTLGQPASISCRSSQSLVHSNGNTYLHWYQQKPGQPPKLLIYKVSNRFSGVPDRFSGSGSGTDFTLKISRVEAEDVGVYFCSQSTHVPYTFGQGTKLEIK
B3: no binding [9].

B4: Th-Ab12-ADC (antibody, V domains shown)
VH: QVQLVQSGAEVKKPGASVKVSCKTSGYTFTEYYIIWVRQAPGQGLEWLGWIFPGSGRTYYSEKFRGRVTITADKSTSTAYMELSSLRSEDTAVYYCARDNYGSSGKFFAYWGQGTLVTVSS
VL: DVVMTQSPLSLPVTLGQPASISCRSSQSLVHSNGNTYLHWYQQKPGQPPKLLIYKVSNRFSGVPDRFSGSGSGTDFTLKISRVEAEDVGVYYCSQSTHVPYTFGQGTKLEIK
modifications: ADC, conjugated to PNU-159682-type payload; constant regions SEQ21 (heavy) and SEQ20 (light)
For B4, the binding result [9] was “no binding”, the EC50 [10] was under 2.69 nM and the EC50 [11] was over 0.9 nM.

B5: Th-Ab11 (antibody, V domains shown)
VH: QVQLVQSGAEVKKPGASVKVSCKTSGYTFTEYYIIWVRQAPGQGLEWLGWIFPGSGRTYYSEKFRGRVTITADKSTSTAYMELSSLRSEDTAVYYCARDNYGSSGKFFAYWGQGTLVTVSS
VL: DVVMTQSPLSLPVTLGQPASISCRSSQSLVHSNGNTYLHWYQQKPGQPPKLLIYKVSNRFSGVPDRFSGSGSGTDFTLKISRVEAEDVGVYFCSQSTHVPYTFGQGTKLEIK
B5: no binding [9].

B6: Th-Ab12 (antibody, V domains shown)
VH: QVQLVQSGAEVKKPGASVKVSCKTSGYTFTEYYIIWVRQAPGQGLEWLGWIFPGSGRTYYSEKFRGRVTITADKSTSTAYMELSSLRSEDTAVYYCARDNYGSSGKFFAYWGQGTLVTVSS
VL: DVVMTQSPLSLPVTLGQPASISCRSSQSLVHSNGNTYLHWYQQKPGQPPKLLIYKVSNRFSGVPDRFSGSGSGTDFTLKISRVEAEDVGVYYCSQSTHVPYTFGQGTKLEIK
B6: no binding [9].
